Test results as given in patent US8329950B2, “Process for preparation of trans 4-(3,4-Dichlorophenyl)-1,2,3,4-tetrahydro-1Napthalenamine” (Sunovion Pharmaceuticals Inc., priority 2005, dated 2012).

Tests used:
[1] = tested on: women with insomnia secondary to perimenopause or menopause; assay: Clinical study, number of nocturnal awakenings due to hot flashes; type: in vivo, human; conditions: 3 mg nightly, Intent-to-Treat; for Nocturnal Awakenings due to Hot Flashes, Change from Baseline, Least Squares Means (SE): ANCOVA; for Nocturnal Awakenings due to Hot Flashes, Observed Value, Least Squares Means (SE): ANOVA
Method: (§1) The study was aimed at observing efficacy of eszopiclone 3 mg compared to placebo in the treatment of insomnia secondary to perimenopause or menopause.
(§2) The study was a multicenter, randomized, double-blind, placebo-controlled, parallel-group study. […] The primary method of analysis compared the post-randomization results between the two treatment groups.
(§3) Subjects were women with insomnia secondary to perimenopause or menopause. Subjects were perimenopausal or menopausal and had insomnia symptoms including ≧45 minutes sleep latency (SL) and total sleep time (TST)≦6 hours. Perimenopausal/menopausal symptoms predated the onset of sleep disturbance symptoms. The patient population was predominately Caucasian (77.2%). The mean age was 49, with a range of 40-60.
(§4) A total of 410 subjects were randomized. Among them, 201 received 3 mg of eszopiclone (ESZ) nightly (at bedtime) for four weeks and 209 received matching placebo (PBO).

[2] = tested on: women with insomnia secondary to perimenopause or menopause; assay: Clinical study, Physician Global Assessment; type: in vivo, human; conditions: Visit 5 (Week 4), 3 mg nightly; for Physician Global Assessment, Observed Value, Least Squares Means (SE): ANOVA
Method: as §1, §2, §3, §4
A Physician Global Assessment was administered at Week 4, the end of the double-blind treatment period.

[3] = score 1 = Very much improved to 7 = Very much worse

Compound: CN1CCN(C(=O)O[C@H]2c3nccnc3C(=O)N2c2ccc(Cl)cn2)CC1 [Eszopiclone, (+) 6-(5-chloropyrid-2-yl)-5-(4-methylpiperazin-1-yl)carbonyloxy-7-oxo-6,7-dihydro-5H-pyrrolo[3-4-b]pyrazine]
- Nocturnal Awakenings due to Hot Flashes, Change from Baseline, 25th Percentile ([1]; DB Average): −1.1
- Nocturnal Awakenings due to Hot Flashes, Change from Baseline, 75th Percentile ([1]; DB Average): 0.0
- Nocturnal Awakenings due to Hot Flashes, Change from Baseline, Maximum ([1]; DB Average): 1.5
- Nocturnal Awakenings due to Hot Flashes, Change from Baseline, Mean (SD) ([1]; DB Average): −0.7 (1.0)
- Nocturnal Awakenings due to Hot Flashes, Change from Baseline, Median ([1]; DB Average): −0.5
- Nocturnal Awakenings due to Hot Flashes, Change from Baseline, Minimum ([1]; DB Average): −6.0
- Nocturnal Awakenings due to Hot Flashes, Observed Value, 25th Percentile ([1]; DB Average): 0.0
- Nocturnal Awakenings due to Hot Flashes, Observed Value, 75th Percentile ([1]; DB Average): 0.9
- Nocturnal Awakenings due to Hot Flashes, Observed Value, Maximum ([1]; DB Average): 2.7
- Nocturnal Awakenings due to Hot Flashes, Observed Value, Mean (SD) ([1]; DB Average): 0.5 (0.6)
- Nocturnal Awakenings due to Hot Flashes, Observed Value, Median ([1]; DB Average): 0.2
- Nocturnal Awakenings due to Hot Flashes, Observed Value, Minimum ([1]; DB Average): 0.0
- Nocturnal Awakenings due to Hot Flashes, Change from Baseline, Least Squares Means (SE) ([1]; DB Average): −0.7 (0.1)
- Nocturnal Awakenings due to Hot Flashes, Observed Value, Least Squares Means (SE) ([1]; DB Average): 0.5 (0.1)
- Nocturnal Awakenings due to Hot Flashes, Change from Baseline, 25th Percentile ([1]; Week 1): −1.2
- Nocturnal Awakenings due to Hot Flashes, Change from Baseline, 75th Percentile ([1]; Week 1): 0.0
- Nocturnal Awakenings due to Hot Flashes, Change from Baseline, Maximum ([1]; Week 1): 0.8
- Nocturnal Awakenings due to Hot Flashes, Change from Baseline, Mean (SD) ([1]; Week 1): −0.7 (1.0)
- Nocturnal Awakenings due to Hot Flashes, Change from Baseline, Median ([1]; Week 1): −0.5
- Nocturnal Awakenings due to Hot Flashes, Change from Baseline, Minimum ([1]; Week 1): −6.0
- Nocturnal Awakenings due to Hot Flashes, Observed Value, 25th Percentile ([1]; Week 1): 0.0
- Nocturnal Awakenings due to Hot Flashes, Observed Value, 75th Percentile ([1]; Week 1): 1.0
- Nocturnal Awakenings due to Hot Flashes, Observed Value, Maximum ([1]; Week 1): 3.0
- Nocturnal Awakenings due to Hot Flashes, Observed Value, Mean (SD) ([1]; Week 1): 0.5 (0.7)
- Nocturnal Awakenings due to Hot Flashes, Observed Value, Median ([1]; Week 1): 0.2
- Nocturnal Awakenings due to Hot Flashes, Observed Value, Minimum ([1]; Week 1): 0.0
- Nocturnal Awakenings due to Hot Flashes, Change from Baseline, Least Squares Means (SE) ([1]; Week 1): −0.7 (0.1)
- Nocturnal Awakenings due to Hot Flashes, Observed Value, Least Squares Means (SE) ([1]; Week 1): 0.5 (0.1)
- Nocturnal Awakenings due to Hot Flashes, Observed Value, Least Squares Means (SE) ([1]; Week 1, listed as ESZ): 0.3
- Nocturnal Awakenings due to Hot Flashes, Change from Baseline, 25th Percentile ([1]; Week 2): −1.0
- Nocturnal Awakenings due to Hot Flashes, Change from Baseline, 75th Percentile ([1]; Week 2): 0.0
- Nocturnal Awakenings due to Hot Flashes, Change from Baseline, Maximum ([1]; Week 2): 2.0
- Nocturnal Awakenings due to Hot Flashes, Change from Baseline, Mean (SD) ([1]; Week 2): −0.7 (1.0)
- Nocturnal Awakenings due to Hot Flashes, Change from Baseline, Median ([1]; Week 2): −0.6
- Nocturnal Awakenings due to Hot Flashes, Change from Baseline, Minimum ([1]; Week 2): −6.0
- Nocturnal Awakenings due to Hot Flashes, Observed Value, 25th Percentile ([1]; Week 2): 0.0
- Nocturnal Awakenings due to Hot Flashes, Observed Value, 75th Percentile ([1]; Week 2): 1.0
- Nocturnal Awakenings due to Hot Flashes, Observed Value, Maximum ([1]; Week 2): 3.0
- Nocturnal Awakenings due to Hot Flashes, Observed Value, Mean (SD) ([1]; Week 2): 0.5 (0.7)
- Nocturnal Awakenings due to Hot Flashes, Observed Value, Median ([1]; Week 2): 0.0
- Nocturnal Awakenings due to Hot Flashes, Observed Value, Minimum ([1]; Week 2): 0.0
- Nocturnal Awakenings due to Hot Flashes, Change from Baseline, Least Squares Means (SE) ([1]; Week 2): −0.6 (0.1)
- Nocturnal Awakenings due to Hot Flashes, Observed Value, Least Squares Means (SE) ([1]; Week 2): 0.5 (0.1)
- Nocturnal Awakenings due to Hot Flashes, Change from Baseline, 25th Percentile ([1]; Week 3): −1.0
- Nocturnal Awakenings due to Hot Flashes, Change from Baseline, 75th Percentile ([1]; Week 3): 0.0
- Nocturnal Awakenings due to Hot Flashes, Change from Baseline, Maximum ([1]; Week 3): 1.5
- Nocturnal Awakenings due to Hot Flashes, Change from Baseline, Mean (SD) ([1]; Week 3): −0.7 (1.1)
- Nocturnal Awakenings due to Hot Flashes, Change from Baseline, Median ([1]; Week 3): −0.4
- Nocturnal Awakenings due to Hot Flashes, Change from Baseline, Minimum ([1]; Week 3): −6.0
- Nocturnal Awakenings due to Hot Flashes, Observed Value, 25th Percentile ([1]; Week 3): 0.0
- Nocturnal Awakenings due to Hot Flashes, Observed Value, 75th Percentile ([1]; Week 3): 1.0
- Nocturnal Awakenings due to Hot Flashes, Observed Value, Maximum ([1]; Week 3): 3.0
- Nocturnal Awakenings due to Hot Flashes, Observed Value, Mean (SD) ([1]; Week 3): 0.5 (0.7)
- Nocturnal Awakenings due to Hot Flashes, Observed Value, Median ([1]; Week 3): 0.0
- Nocturnal Awakenings due to Hot Flashes, Observed Value, Minimum ([1]; Week 3): 0.0
- Nocturnal Awakenings due to Hot Flashes, Change from Baseline, Least Squares Means (SE) ([1]; Week 3): −0.6 (0.1)
- Nocturnal Awakenings due to Hot Flashes, Observed Value, Least Squares Means (SE) ([1]; Week 3): 0.5 (0.1)
- Nocturnal Awakenings due to Hot Flashes, Change from Baseline, 25th Percentile ([1]; Week 4): −1.3
- Nocturnal Awakenings due to Hot Flashes, Change from Baseline, 75th Percentile ([1]; Week 4): 0.0
- Nocturnal Awakenings due to Hot Flashes, Change from Baseline, Maximum ([1]; Week 4): 2.1
- Nocturnal Awakenings due to Hot Flashes, Change from Baseline, Mean (SD) ([1]; Week 4): −0.8 (1.2)
- Nocturnal Awakenings due to Hot Flashes, Change from Baseline, Median ([1]; Week 4): −0.7
- Nocturnal Awakenings due to Hot Flashes, Change from Baseline, Minimum ([1]; Week 4): −6.0
- Nocturnal Awakenings due to Hot Flashes, Observed Value, 25th Percentile ([1]; Week 4): 0.0
- Nocturnal Awakenings due to Hot Flashes, Observed Value, 75th Percentile ([1]; Week 4): 1.0
- Nocturnal Awakenings due to Hot Flashes, Observed Value, Maximum ([1]; Week 4): 3.6
- Nocturnal Awakenings due to Hot Flashes, Observed Value, Mean (SD) ([1]; Week 4): 0.4 (0.7)
- Nocturnal Awakenings due to Hot Flashes, Observed Value, Median ([1]; Week 4): 0.0
- Nocturnal Awakenings due to Hot Flashes, Observed Value, Minimum ([1]; Week 4): 0.0
- Nocturnal Awakenings due to Hot Flashes, Change from Baseline, Least Squares Means (SE) ([1]; Week 4): −0.7 (0.1)
- Nocturnal Awakenings due to Hot Flashes, Observed Value, Least Squares Means (SE) ([1]; Week 4): 0.4 (0.1)
- Physician Global Assessment, Change from Baseline, 25th Percentile [2]: −2.0
- Physician Global Assessment, Change from Baseline, 75th Percentile [2]: 0.0
- Physician Global Assessment, Change from Baseline, Maximum [2]: 6.0
- Physician Global Assessment, Change from Baseline, Mean (SD) [2]: −1.0 (1.4)
- Physician Global Assessment, Change from Baseline, Median [2]: −1.0
- Physician Global Assessment, Change from Baseline, Minimum [2]: −4.0
- Physician Global Assessment, Change from Baseline, Least Squares Means (SE) ([2]; ANCOVA): −0.9 (0.1)
- Physician Global Assessment, Observed Value, Least Squares Means (SE) [2]: 2.7 (0.1)
- Physician Global Assessment, Observed Value, Least Squares Means (SE) ([2]; listed as ESZ): 2.7
- Physician Global Assessment, Observed Value, 25th Percentile [2, 3]: 2.0
- Physician Global Assessment, Observed Value, 75th Percentile [2, 3]: 4.0
- Physician Global Assessment, Observed Value, Maximum [2, 3]: 6.0
- Physician Global Assessment, Observed Value, Mean (SD) [2, 3]: 2.6 (1.2)
- Physician Global Assessment, Observed Value, Median [2, 3]: 2.0
- Physician Global Assessment, Observed Value, Minimum [2, 3]: 1.0
